In US5906922A, “Delivery of nucleic acids” (Commonwealth Scientific and Industrial Research Organisation, priority 1994, dated 1999):
Entries after “also recorded” stand apart in the source; their conditions may differ. Where two headings read alike, the source gives them in different places. Where a SMILES comes first, the peptide text is derived from it. The star is where a group is joined. NHC(CH2O-Palmitoyl)3 = CCCCCCCCCCCCCCCC(=O)OCC(COC(=O)CCCCCCCCCCCCCCC)(COC(=O)CCCCCCCCCCCCCCC)N*; X3 = CCCCCCCCCCCCCC(=O)OCC(CO)(CO)N*; X2 = CCCCCCCCCCCC(=O)OCC(CO)(CO)N*

Legend:
[1] = test system: Cos 1 cells; assay: Transfection of pSVLCAT, CAT assay, Cos 1; assay type: cell-based, African Green Monkey
Method: To test the transfection properties of the lead compound K3ATP3 (VerafectinA3), whole uncut plasmid carrying the gene encoding CAT (chloramphenicol acetyl transferase) under the control of the SV40 late promoter, pSVLCAT (Cameron, F. H. and Jennings, P. A. (1989) PNAS 86, 9139-9143) was mixed with the test agent and put on Cos 1 cells under various conditions. After 48 hours of culture the level of secreted CAT was assayed from the culture medium.
Solution I: 1 μg Plasmid DNA in 500 μl Dulbeccos Modified Eagles Medium (DME)
Solution II: 0-20 μl VerafectinA3 (2.5 mg/ml 25% DMSO) in 500 μl DME, Vortex
Combine solution I and II, vortex briefly and incubate at room temperature for 10 min.
Add mix to washed cells in 60 mm tissue culture dishes (seeded 0.5×10^6 /dish previous day) for 6 hrs at 37° C., 5% C02. Add 2 ml DME+10% FCS for remainder of 48 hrs. Assay CAT levels in tissue culture medium (Sleigh, M. J. (1986) Anal. Biochem. 156.251-256).
a--Compare VerafectinA3 dissolved in DMSO or ethanol.
b--Compare VerafectinA3 on cells 6 hrs to overnight. VerafectinA3 at 10 mg/ml in 100% solvent was diluted to 2.5 mg/ml with water.
Transfection was carried out as for experiment 1. VerafectinA3 was left in contact with the cells for varying times.
Protocol was the same for the Verafectins as described above. Lipofectamine protocol was according to manufacturers instructions. Cos 1 cells were seeded at 5×10^5 /60 mm dish and adhered overnight in DME with 10% FCS.
Solution A: 0.5 μg pSVLCAT/60 mm dish.
Solution B: Lipofectamine 10 and 15 μl 2 mg/ml (mixed formulation 3:1 with DOPE).
OR; VerafectinA3 and VerafectinG2 20 μl 2 mM (2.8 and 2.3 mg/ml respectively) stock.
OR; VerafectinG2 was also tested with an equimolar amount of DOPE. VerafectinG2 and DOPE were mixed in DDME and vortexed for 30 seconds before use. Solutions A and B were combined before overlaying on washed cells.
The serum free incubation period in the presence of test agents and DNA was 6 hrs, then 1 ml DME+10% FCS was added. At 24 hours medium was changed to 2 ml fresh DME+10% FCS until harvest at 48 hrs.
(§1) Cell lines Cos 1 or CHO were transfected with 0.5 μg of pSVLCAT or 2 μg of pPGKlacZ plasmid using a range of concentrations of each transfection compound. The optimal concentration of compound, that is the concentration giving the highest level of CAT at 48 hours or the greatest percentage of lac z (β-galactosidase) staining cells at 24 hours was used to collate data for Table 1. As all compounds were not tested in a single experiment, absolute figures indicating transfection were not used. Rather, symbols are used to indicate the transfection efficiency relative to Lipofectamine (BRL), which was included as a control in all experiments. Table 1 thus indicates the relative efficiencies of a number of compounds in mediating the transfection of at least one cell type.
(§2) All test lipopeptide reagents were originally dissolved at 10 mM in 75% DMSO, and subsequently diluted with water to make a 2 mM stock stored at 4° C. Volumes of 2 mM stock lipopeptide ranging from 2 μl to 15 μl were diluted in 500 μl of DDME. 1 μg of plasmid pSVLCAT was separately diluted in 500 μl of DDME. Solutions were combined for 10-20 min at room temperature before adding to 500 μl of DDME in 60 mm dishes of subconfluent CHO cells (2×10^5 day-1) or Cos 1 cells (5×10^5 day-1); washed free of serum with DDME.
(§3) Cells were incubated for 6 hrs under standard conditions of 37° C. and 5% CO2 for 6 hours. 1.5 ml of DME/Hams+10% FCS (CHO) or DME+10% FCS (Cos 1) was added to the cells for overnight incubation. Fresh DME/Hams+10% FCS or DME+10% FCS was used to replace the medium for a further 24 hours prior to harvest. Cell lysates were prepared and assayed for CAT activity as described above. For Cos 1 cells, culture supernatants were assayed for CAT activity.
For transfection of pSVLCAT and subsequent assay of CAT enzyme, experiments "a" and "b" were carried out as described above.

[2] = test system: CHO cells; assay: Transfection of pSVLCAT, CAT assay, CHO; assay type: cell-based, Chinese Hamster
Method: Protocol was the same for Verafectin and Transfectam (see above) with the exception that 0.5 μg of pSVLCAT DNA was used /60 mm dish.
Lipofectamine protocol was according to manufacturer's instructions. 0.5 μg pSVLCAT/60 mm dish. CHO cells seeded 1×10^5 /60 mm dish and adhered overnight in DME/Hams medium with 10% FCS.
Transfectam 5 or 10 μl 1mg/400 μl stock solution.
Lipofectamine 5 or 10 μl 2 mg/ml (mixed formulation 3:1 with DOPE). VerafectinA3 (K3ATP3) and VerafectinG2 (K3G[Glycine]TP2) each at 5, 10 and 15 μl of 2 mM (2.8 and 2.3 mg/ml respectively) stock.
The serum free incubation period in the presence of test agents and DNA was 6 hours, then 1 ml DME/Hams+10% FCS was added. At 24 hrs the medium was changed to 2 ml of fresh DME/Hams+10% FCS until harvest at 48 hrs.
as §1, §2, §3
a. Using the standard transfection procedure described above, and 1 μg plasmid pSVLCAT, these formulations were tested on CHO cells at a single concentration equivalent to 10 μl of Verafectin A2 (2 mM) per sample and compared to unformulated compound and Lipofectamine in the same cell type. CAT production was assayed 48 hours after transfection.

[3] = test system: Cos 1 cells; assay: β-gal microtitre plate transfection assay, Cos 1; assay type: cell-based, African Green Monkey
Source text: (§4) For experiment "c", a plasmid pPGKlaczNLS encoding β-galactosidase under the control of the mouse PGK promoter (kind gift from G.Hannan) or pSVGAL which utilises the SV40 early promoter (Sleigh, M. J. and Lockett, T. J. (1985). EMBO J. 4:3831-3837),was transfected. This experiment and assay were modified from Feigner et al J. Biol Chem. 269(4) 2550-2561 1994. This protocol allows the simultaneous assessment of 72 different combinations and concentrations of DNA and test agent in a microtitre tray. […] Cytotoxicity was assessed using alamar blue, and a sample graph is shown for experiment a.
Compounds were tested for their ability to transfect either the CAT or β-gal gene carried on plasmids, and assayed as described above.
(§5) The ratio of [lipid]/[DNA] at which that maximum was achieved is shown. Experiments shown were carried out in Cos 1 cells, as described above. MTS OD is a measure of relative viabilility of the cells exposed to the different agents, a higher value indicates greater cell viability. * These points were taken from a separate experiment and some slight variation between absolute numbers should be expected between experiments.
(§6) Each of these compounds was tested for transfection ability and cytotoxicity on standard cell lines using standard conditions as described above.
(§7) The ratio of [lipid]/[DNA] at which that maximum was achieved is shown in brackets for the two different cell types in the following order; (Cos 1) (CHO). Experiments shown were carried out in Cos 1 cells, as described above. Viability was measured with the dye alamar blue . # Denotes compounds tested in a separate experiment. * Viability in this experiment was determined with MTS. OD is a measure of relative viability of the cells exposed to the different agents, and as with alamar blue, a higher value indicates greater cell viability.

[4] = test system: Cos 1 cells; assay type: cell-based, African Green Monkey
Method: Relative levels of cytotoxicity were also assayed in subsequent experiments using the dye MTS, marketed as Cell titre 96 Aqueous (Promega).
as §5, §7

[5] = test system: Cos 1 cells; assay type: cell-based, African Green Monkey; remark: listed apart in the source
Source text: (§8) Relative levels of cytotoxicity caused by the different agents were compared during the experiment using the dye "Alamar Blue" (Alamar, Sacramento Calif.).
as §4, §5, §7

[6] = test system: CHO cells; assay: β-gal microtitre plate transfection assay, CHO; assay type: cell-based, Chinese Hamster; conditions: Table 3, CHO; for β-gal (CHO): highest reading of 72 conditions
Source text: as §4, §6, §7

[7] = test system: CHO cells; assay type: cell-based, Chinese Hamster
Method: (LEGEND--FIGS. 7, 8 and 9; none; no agent used with plasmid DNA, rb/blank; reagent blank, number following description of compound indicates no. μl of 2 mM stock (diluted with water). 7b: 100% cell survival was taken from dishes which were "mock transfected" with no DNA or transfection agent. 0% viability was assayed in the absence of cells. Viability was assessed using the dye alamar blue.)
as §8, §7

[8] = Electron microscopy of formulated and unformulated compounds; assay type: physicochemical; conditions: negatively stained
Method: Solutions of formulated and unformulated compounds were analysed for potential membrane-like structure. In separate experiments the following samples were analysed:
a: Negatively stained samples of formulated compounds K3ATP2:DOPE, DOPE and the unformulated compounds K3C7ATL3 and Lipofectamine.
b: Rotary shadowed samples of K3C7ATL3 and Lipofectamine mixed with two ratios of nucleotide (plasmid).
Stock samples of liposomes at 2 mM, were diluted 1 in 10 with filtered distilled water, and mixed 1:1 with filtered negative stain (Ammonium Molybdate 2%, pH 6.5) and spread onto carbon-formvar coated copper/rhodium 200 mesh electron microscope grids, and examined in a Jeol JEM 100CX electron microscope at 60 kV at magnifications of between 33 k and 100 k.
Ratios of 0.69, and 0.25, of liposome:1 mole DNA nucleotides were diluted in water and mixed for 10 min at room temperature, spread onto carbon-formvar coated grids and rotary metal-shadowed with platinum-palladium (60:40) evaporated at an angle of 7° and examined in the electron microscope at 60 kV at magnifications between 26 k and 66 k.

[9] = Table 3, Cos 1, highest reading of 72 conditions
[10] = Table 2, Cos 1, * separate experiment

CCCCCCCCCCCCCCCC(=O)OCC(COC(=O)CCCCCCCCCCCCCCC)(COC(=O)CCCCCCCCCCCCCCC)NC(=O)[C@H](C)NC(=O)[C@H](CCCCN)NC(=O)[C@H](CCCCN)NC(=O)[C@@H](N)CCCCN [K3ATP3, trilysine alanine tris tripalmitate] (H-KKKA-{NHC(CH2O-Palmitoyl)3})
amount giving peak CAT level ([1]; Experiment 1, 2.5 mg/ml stock, 10 μl (25 μg)): 10 µL
CAT levels ([1]; Experiment 1, 5 μl (12.5 μg) and above, 48 hours): Significant CAT levels
reduction of CAT levels, overnight compared to 6 hour incubation ([1]; Experiment 2): approximately 50%
CAT levels ([1]; Experiment 2, 10 μl (25 μg) and above): Significant levels of CAT
transfection level relative to Lipofectamine ([1]; Experiment 4, Cos 1, 48 hours): approximately 60%
Transfection (CAT) ([1]; Table 1, Cos 1, optimised level of agent): +++(+)
CAT activity (mean) ([2]; "x" peptide experiment a, CHO, 25 μl lysate, 20 min assay at 37° C., optimal level): 6237 cpm
mean level of CAT activity ([2]; "x" peptide experiment c, CHO, 2 hours incubation of 20 μl lysate): 13467
CAT levels relative to Lipofectamine ([2]; Experiment 3, CHO, 5 μl): ~18%
CAT levels relative to Transfectam ([2]; Experiment 3, CHO, 5 μl): approximately 54%
CAT activity (mean) ([2]; R1-R4 experiment e, CHO): 8325 cpm
Transfection (CAT) ([2]; Table 1, CHO, optimised level of agent): +++
ratio [lipid]/[DNA] at which maximum was achieved ([3]; Table 2, Cos 1): 0.69
units β-gal ([3]; Table 2, Cos 1, highest reading of 72 conditions): 2.73 × 10^-4 units
β-gal (Cos 1) ([3]; Table 3, Cos 1, # tested in a separate experiment): 2.73 × 10^-4
β-gal (Cos 1) [3, 9]: 3.52 × 10^-5
MTS OD490-655 [4]: 1.244
Viability (Cos 1) [4]: 1.24
Viability (Cos 1) [5]: 0.077

CCCCCCCCCCCCCC(=O)OCC(CO)(CO)NC(=O)[C@H](C)NC(=O)[C@H](CCCCN)NC(=O)[C@H](CCCCN)NC(=O)[C@@H](N)CCCCN [K3ATM1] (H-KKKA-X3)
ratio [lipid]/[DNA] at which maximum was achieved ([3]; Table 2, Cos 1): 0.69
units β-gal [3, 10]: 5.85 × 10^-6 units
ratio [lipid]/[DNA] at which maximum was achieved ([3]; Table 3, Cos 1): .69
β-gal (Cos 1) [3, 9]: 5.85 × 10^-6
ratio [lipid]/[DNA] at which maximum was achieved [6]: .69
β-gal (CHO) [6]: 5.18 × 10^-6
Viability (Cos 1) [5]: 0.102
Viability (CHO) [7]: 0.07

CCCCCCCCCCCC(=O)OCC(CO)(CO)NC(=O)[C@H](C)NC(=O)[C@H](CCCCN)NC(=O)[C@H](CCCCN)NC(=O)[C@@H](N)CCCCN [K3ATL1] (H-KKKA-X2)
ratio [lipid]/[DNA] at which maximum was achieved ([3]; Table 2, Cos 1): 0.35
units β-gal [3, 10]: 1.09 × 10^-5 units
ratio [lipid]/[DNA] at which maximum was achieved ([3]; Table 3, Cos 1): .35
β-gal (Cos 1) [3, 9]: 1.09 × 10^-5
ratio [lipid]/[DNA] at which maximum was achieved [6]: 2.77
β-gal (CHO) [6]: 2.99 × 10^-6
Viability (Cos 1) [5]: 0.104
Viability (CHO) [7]: 0.072

CCCCCCCC/C=C\CCCCCCCC(=O)OC[C@H](COP(=O)(O)OCCN)OC(=O)CCCCCCC/C=C\CCCCCCCC [DOPE, Dioleoyl phosphatidyl ethanolamine, reference compound]
transfection by DOPE alone ([2]; CHO, unformulated or "formulated"): gave no transfection
liposome structure (TEM) [8]: does not form a true liposome; also recorded: did not under the same conditions
